Test results published in publication PMC5652740, “Inhibition of HIV-1 infection in humanized mice and metabolic stability of protein phosphatase-1-targeting small molecule 1E7-03” (Oncotarget, 2017).

Experiments:
[1] = tested on: RSP13 and β-actin mRNA in CEM T cells; test: Cellular transcription, RSP13 and β-actin mRNA by real-time RT-PCR; format: cell-based; conditions: 10 μM, in words
Description: For quantitative analysis of HIV-1 RNA, CEM T cells were infected with HIV-1-LUC-G virus. Cells were treated with 10 μM 1E7-03, 10 μM DP1, 10 μM DP3, 5 μM AZT or 5 μM 3TC and control cells were untreated or treated with DMSO. Total RNA was isolated using Trizol Reagent (Invitrogen, Carlsbad, CA) according to the manufacturer's protocol. Total RNA (100 ng) was reverse transcribed to cDNA using Superscript™ RT-PCR kit (Invitrogen, Carlsbad, CA). Hexamers and oligo-dT were used as primers. For real-time PCR analysis, cDNA was amplified using Roche LightCycler 480 (Roche Diagnostics) and SYBR Green1 Master mix (Roche Diagnostics). PCR was run for 45 cycles and each cycle included denaturation at 95°C for 10 seconds, annealing at 60°C for 10 seconds, and extension at 72°C for 10 seconds. Quantification of env and gag was carried using 18S RNA as a normalization standard. Quantification of housekeeping genes, β-actin and RSP13 was carried relative to 18S RNA. Mean Cp values were determined and ΔΔCt method was used to calculate relative expression levels. Unpaired t-test was used to test statistical significance.
The following primer sequences were used: env, forward - […], reverse-[…]; gag, forward- […], reverse- […]; β-actin, forward- […], reverse-[…]; RSP13, forward- […], reverse- […]; and 18SrRNA, forward- […], reverse- […].

HIV-1 integration = test: HIV-1 integration, Alu-Gag real-time PCR in CEM T cells; format: cell-based; conditions: 10 μM, DNA 6 hrs post infection, in words
Description: To assay HIV-1 integration, CEM T cells were infected with HIV-1-LUC-G virus and treated with 10 μM 1E7-03 or DMSO. Total DNA was extracted from cells using lysis buffer (10 mM Tris-HCl pH 8.0, 10 mM EDTA, 5 mM NaCl, 200 μg/ml proteinase K). The cells were lysed for 20-30 min at room temperature and proteinase K was inactivated by heating to 95°C for 5 min. For the real-time PCR analysis, 100 ng DNA was amplified using Roche Light Cycler 480 (Roche Diagnostics) and SYBR Green1 Master mix (Roche Diagnostics). PCR was carried with initial preincubation for 5 min at 45°C and then for 3 in at 95°C followed by 45 cycles of denaturation at 95°C for 15 sec, annealing and extension at 60°C for 45 sec, and final extension at 72°C for 10 sec. Integrated HIV-1 DNA was amplified using the following primers: Alu forward 5'-[…]-3', and Gag reverse 5'-[…]-3'.

[2] = 1E7-03 degradation in human plasma; format: in vitro ADME; conditions: 37°C
Description: 1E7-03 dissolved in DMSO (10 mM stock solution) was mixed with mouse plasma (Sigma-Aldrich), guinea pig plasma (Sigma-Aldrich), ferret plasma (BioreclamationIVT), monkey plasma (courtesy of Binhua Ling, PhD, Tulane University) and human plasma (collected from heathy volunteer by the Center for Sickle Cell Disease at Howard University) to the final concentration of 10 μM and incubated at 37°C. Aliquots were collected at different time points for up to 24 hrs. The resulting sample (60 μl) was mixed with 240 μl of cold acetone, vortexed for 2 min, kept at –20°C for 30 min, and then the precipitated protein was removed by centrifugation at 13,000 × g for 5 min. The supernatant was transferred to a clean test tube and evaporated to dryness using a SpeedVac concentrator. The residue reconstituted in 60 μl of acetonitrile for LC/FT-MS analysis. All experiments were run parallel in triplicates.

CCNC(=O)NC(=O)C(C)OC(=O)c1c2c(nc3ccccc13)/C(=C/c1ccc(OC)c(OC)c1)CC2 (stereo not shown) [1E7-03]
RSP13 mRNA expression [1]: slight induction | β-actin mRNA expression [1]: slight induction | effect on HIV-1 integration (HIV-1 integration): did not show any significant effect | remaining at 24 h, 10 µM [2]: > 50%
